Data: PubChem BioAssay (NCI)
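Method: 48-hour compound exposure of cells in 96-well plates, five concentrations, linear interpolation of endpoints. At the TGI there is no net growth.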

Columns and labels:
Test in all cases: NCI tumour cell line growth inhibition, 48 h
786-0 renal = system: 786-0 renal
HT29 colon = system: HT29 colon
M19-MEL melanoma = system: M19-MEL melanoma
NCI-H226 lung = system: NCI-H226 lung
NCI-H460 lung = system: NCI-H460 lung
RXF 393 renal = system: RXF 393 renal
SF-268 CNS = system: SF-268 CNS
U251 CNS = system: U251 CNS
UO-31 renal = system: UO-31 renal
OVCAR-4 ovarian = system: OVCAR-4 ovarian

Row | SMILES | TGI (786-0 renal) [µM] | TGI (HT29 colon) [µM] | TGI (M19-MEL melanoma) [µM] | TGI (NCI-H226 lung) [µM] | TGI (NCI-H460 lung) [µM] | TGI (RXF 393 renal) [µM] | TGI (SF-268 CNS) [µM] | TGI (U251 CNS) [µM] | TGI (UO-31 renal) [µM] | TGI (OVCAR-4 ovarian) [µM]
1 | O=C(O)c1ccccc1[Se][Se]c1ccccc1C(=O)O | > 100 | > 100 | > 100 | 31.4 | > 100 | > 100 | > 100 | > 100 | 28.3 | 
2 | O=C1C2C(C(=O)N1OS(=O)(=O)c1ccccc1)N(Cc1ccccc1)C(=O)N2Cc1ccccc1 (stereo unspecified) | > 100 | > 100 | > 100 | > 100 | > 100 | > 100 | > 100 | > 100 | > 100 | > 100
3 | CNS(=O)(=O)NNS(=O)(=O)c1ccc2ccccc2c1 | > 100 | > 100 | > 100 | > 100 | > 100 |  | > 100 | > 100 | > 100 | > 100
4 | Cc1ccc(N=Nc2ccc(N(CCC#N)CCC#N)cc2C)c(Br)c1 | 61.5 | 27.4 | > 100 | 61.5 |  | 46.1 | > 100 | > 100 | > 100 | > 100
5 | CC(=O)NNc1nc(C)c(C(=O)NNC(=O)C(=O)Nc2c(Cl)cc([N+](=O)[O-])cc2Cl)s1 | > 100 | > 100 | > 100 | 82.6 | > 100 |  | 86.1 | > 100 | 87.1 | 63.2
6 | CC(=O)NNc1nc(C)c(C(=O)NNC(=O)C(=O)Nc2ccc(Cl)cc2)s1 | > 100 | > 100 | > 100 | > 100 | > 100 |  | > 100 | > 100 | > 100 | > 100
7 | C/C(CC(=O)CCC(=O)Nc1cccc(C(F)(F)F)c1)=N\NC(=O)NN | > 100 | > 100 | > 100 | > 100 | > 100 |  | > 100 | > 100 | > 100 | > 100
8 | O=CN/C=C/c1cc(O)ccc1O | 27.1 | 56.5 | 28.5 | > 88.1 | > 100 | 26.3 | 37.5 | > 66 | 46.3 | 32.2
9 | CN(C)CC[N+]1=Nc2cccc3cccc(c23)N1 | > 100 | > 100 | > 100 | > 100 | > 64.8 |  | > 100 | > 100 | > 60.9 | > 100
10 | CC1(c2ccc(F)cc2)C(C#N)C(=O)NC(=O)C1C#N (stereo unspecified) | > 100 | > 100 | > 100 | > 100 | > 100 | > 100 | > 100 |  | > 100 | > 100
11 | COC(=O)CC1CCN(C#N)CC1CC[N+](=O)[O-] (stereo unspecified) | > 100 |  | > 100 | > 100 | > 100 | > 100 | > 100 | > 100 | > 100 | > 100
12 | COc1ccccc1C12OC(=O)C1(C)Oc1ccccc1C2=O (stereo unspecified) | > 100 | > 100 | > 100 | > 100 | > 100 | > 100 | > 100 | > 100 | > 100 | > 100
13 | O=C(N/C(=C\c1ccc(/C=C(\NC(=O)c2ccccc2)c2nc3cc([N+](=O)[O-])ccc3[nH]2)cc1)c1nc2cc([N+](=O)[O-])ccc2[nH]1)c1ccccc1 | > 100 | > 100 | > 100 |  |  | > 100 | > 100 | > 100 | > 100 | > 100
14 | COC1(OC)CCC2C1C1CCC(OC)(OC)C21 (stereo unspecified) | > 50 | > 50 | > 50 | > 50 |  | > 50 | > 50 | > 50 | > 50 | > 50
15 | Cn1cnc([N+](=O)[O-])c1Sc1nnc(-c2cccnc2)n1C | 41.6 | 47.9 | 38.8 | > 81.6 | > 100 | 23.9 | > 95.7 | > 100 | 53.8 | 56.6
16 | O=C(/C=C/c1ccccc1)NC1C=Nc2ccc(Cl)cc2NC1=O (stereo unspecified) | > 100 | > 100 | 64.5 | > 100 | 51 | 52.4 | > 100 | 79.9 | 87.8 | > 100
17 | Clc1cc2nsnc2c(Cl)n1 | 31.2 | 49.3 | 75.5 | 42.3 | > 100 |  | 79.4 | 40.1 | 39.8 | 31.3
18 | N#CC(c1ccc(Cl)cc1)c1cccc(C(C#N)c2ccc(Cl)cc2)n1 (stereo unspecified) | > 100 | > 100 | > 100 | > 100 | > 100 |  | > 100 | > 100 | 42.3 | > 100
19 | COc1cc2c(cc1OC)-c1c3cc(O)ccc3nn[n+]1CC2 | > 100 | > 100 | > 100 | > 100 | > 100 | > 100 | > 100 | > 100 |  | > 100
20 | CCCCCCCCCCCOc1ccc(C(=O)C(=O)c2ccc(OCCCCCCCCCCC)c(OCCCCCCCCCCC)c2)cc1OCCCCCCCCCCC | > 100 | > 100 | > 100 | > 100 | > 100 |  | > 100 | > 100 | > 100 | > 100
21 | CC(C)C/C(CC(=O)CCC(=O)Nc1ccccc1[N+](=O)[O-])=N\NC(=O)c1cc2ccccc2cc1O | > 100 | > 100 | 65.1 | > 100 | > 100 | > 100 | > 100 | > 100 | > 100 | 
22 | O=CC[C@H]1C(=O)C[C@@H]2CCC[C@@H]21 | > 100 | > 100 | > 100 | > 100 | > 100 | > 100 | > 100 | > 100 |  | > 100
23 | CN(C)C(=N)c1ccccc1 | > 100 | > 100 | > 100 | > 100 | > 100 | > 100 |  | > 100 | > 100 | > 100
